Reference: patent US20260131033A1, “RADIOLABELED FRUCTOSE DERIVATIVES FOR MEDICAL IMAGING” (Yellowbird Diagnostics Inc., priority 2023, published 2026)
One block for each compound: values may come before it.

Key:
[1] = tested on: heterotopic HepG2 xenograft mouse model; test: Comparative PET/CT biodistribution in heterotopic HepG2 xenograft mouse model; format: in vivo
Procedure: After the confirmation of cell uptake and intracellular trapping of [U^13C]4-FDF, and the successful production of the radiofluorinated analog, the biodistribution of [^18F]4-FDF was evaluated in a heterotopic HepG2 xenograft mouse model and compared to the biodistribution of [^18F]6-FDF and [^18F]FDG. PET/CT images shown are the summed images from 20-45 min after intravenous injection of (FIG. 4A) [^18F]4-FDF, (FIG. 4B) [^18F]6-FDF, or (FIG. 4C) [^18F]FDG. Sagittal, coronal, and maximum intensity projection (MIP) are shown, in addition to axial sections at the level of the brain, heart, liver/kidneys, and hips. […] Purple represents an increase in AUC and blue represents a decrease in AUC. The values are normalized fold-change in AUC.
Eight-week-old female nu/nu mice were inoculated with 10×10^6 HepG2 cells suspended in 50% Matrigel:DMEM subcutaneously under the left shoulder. Within 3-weeks of implantation, mice were imaged by PET/CT.
PET/CT Imaging. PET/CT imaging was carried out on a Bruker Si78PET/CT scanner with a 4-position hotel having adjustable isoflurane and respiratory monitoring for each position (Bruker USA). Tail veins were catheterized, and an anatomical CT was acquired over the whole of the mouse bodies using the “rat” settings. PET acquisition was started just prior to a bolus i.v. injection of approximately 200 μCi of radiotracer. Dynamic scans were acquired in list mode format over 45 min and sorted into 16×0.5-mm sinogram bins for image reconstruction (4×15 s, 4×60 s and 8×300 s). Iterative reconstruction was performed using 3D ordered-subsets expectation maximization (3D-OSEM) followed by fast maximum a posteriori (fastMAP) using Paravision 360 software v.3.4 (Bruker, USA). Four-mouse images were split into individual mice, and the bed was removed using PMOD v (Bruker, USA). VivoQuant v.2022 (InviCRO) was used for visualization of radioradiotracer uptake in tissues, to define the three-dimensional (3D) volumes of interest (VOI) and for 3D-visualisation to create volume rendering technique images. The count densities were averaged for all volumes of interest at each time point to obtain a time versus activity curve (TAC). Tumor and tissue TACs were normalized to injected dose, measured by a CRC-15 PET dose calibrator (Capintec, Inc., NJ, USA), and expressed as percentage injected dose per cubic centimeter of tissue (% ID/cc).

[2] = tested on: HepG2 human hepatocarcinoma cells; test: Tracing of [U^13C]-fructose analog metabolism in vitro by LC-MS; format: cell-based; conditions: for metabolic fate / main ^13C-labelled cellular product / metabolism through the polyol pathway: 25 mM ^13C-labelled analog; for formation of glucose-6-phosphate: polyol pathway
Procedure: In order to characterize the structure-activity effect of fructose deoxyfluorination on metabolic flux, the metabolism of isotopically labelled [U^13C]-fructose, and [U^13C]-1-, [U^13C]-6-, and [U^13C]-4-FDF deoxyfluorinated fructose analogs was evaluated in vitro in HepG2 human hepatocarcinoma cells by mass spectrometry (FIGS. 3A-3G). HepG2 were chosen as a model cell line due to a recent report by Tee et al. outlining their propensity for fructolysis (Tee, S. S. et al., 2022). [U^13C]-1- and [U^13C]-6-FDF were synthesized according to previously published methods (Haradahira, T. et al., 1995; Wuest, M. et al., 2011), and [U^13C]-4-FDF was synthesized as described hereinabove (Scheme 3).
Tracing of [U^13C]-fructose metabolism in vitro. Human hepatocellular carcinoma cells (HepG2) were grown in Dulbecco's modified Eagle medium (DMEM) supplemented with 10% heat-inactivated fetal bovine serum (FBS) and 1% penicillin-streptomycin (P/S) until 80% confluent under cell culture conditions (37° C., 5% CO2, humidified), at which point they were passaged. Cells were passaged three times before being seeded in to a 6-well plate and grown until 80% confluent. Supplemented media was aspirated and replaced with lactated Ringer's buffer (LRB) alone or containing 25 mM [U^13C]-1-FDF, [U^13C]-4-FDF, or [U^13C]-6-FDF. Cells were incubated under cell culture conditions for 0, 15, 30, or 60 min. Following incubation, the plates were placed on ice and wells were aspirated. Wells were washed three times with ice-cold ammonium formate buffer (150 mM, pH 7.4) to remove unbound probe. A chilled (−20° C.) solution of 1:1 methanol:water was added to the wells and cells were scraped off of the wells into the solution. This solution was collected into bead-beater tubes containing 6 beads and stored at −80° C. until further analysis was performed.
Levels of fructose metabolites were assessed by liquid chromatography mass spectrometry (LC-MS). Sample temperature was maintained on ice or dry ice where possible, and all solvents were MS grade and pre-equilibrated to −20° C.
Metabolite extraction. Cell pellets were collected to a pre-chilled 2 mL tube containing 6 washed ceramic beads (1.4 mm). 380 μl of methanol:water (1:1) was added in the tube and kept in −80° C. until the day of metabolite extraction. On the day of extraction, samples were vortexed for 10 s and cell lysis was done by beating for 60 s at 2000 rpm (bead beating was done twice) after adding 220 μL of acetonitrile. Samples were then incubated with a 2:1 dichloromethane:water solution on ice for 10 minutes. The polar and non-polar phases were separated by centrifugation at 4000 g for 10 minutes at 1° C. The resulting upper phase, consisting of polar metabolites was dried with a refrigerated (−4° C.) centrivap concentrator (Labconco) and stored at −80° C. before LC-MS analyses.
LC-MS metabolite quantification. Samples to be injected in -ESI were re-suspended with 75% acetonitrile, cleared by centrifugation and run on an Agilent 6545B Q-TOF mass spectrometer equipped with a 1290 Infinity II ultra-high performance LC (Agilent Technologies). Continuous internal mass calibration was executed using signals from purine [12,000 full width at half maximum (FWHM) resolution] and hexakis (1H,1H,3H-tetrafluoropropoxy) phosphazine (24,000 FWHM resolution). All study samples were randomized before analysis and run using both high and low pH hydrophilic interaction chromatography (HILIC-Z) in negative ionization mode. HILIC separation was obtained using the Poroshell 120 HILIC-Z column (2.1 100 mm, […]; Agilent) and corresponding guard column. The chromatographic conditions and mass spectrometry acquisition parameters were as described elsewhere (Zhu, Z. et al., 2023). Metabolite identification was confirmed by exact mass, retention time and subsequent MS/MS fragmentation for where standards are available. For the fluoro-fructose labelled metabolites, exact mass and MS/MS was considered for metabolite confirmation. […]

[3] = Time-course PET/CT biodistribution and TACs in fed or fasted mice; conditions: Balb/C mice freely fed or overnight fasted, ~7.4 MBq i.v., 60 min PET/CT
Procedure: Animals received ˜7.4 MBq i.v. immediately upon the initiation of image acquisition, which continued for 60 min. The dynamic scan was binned according to the times indicated.
Solid line=mean; Shaded region=standard deviation. Regions of interest were drawn over the tissues of interest, and the activity within that region of interest of known volume were plotted over the timecourse of the 60 min PET/CT acquisition.

[4] = tested on: mouse model of systemic inflammation (LPS); test: [^18F]4-FDF PET/CT in LPS mouse model of systemic inflammation; format: in vivo
Procedure: In order to further investigate whether a fructolytic switch occurs in inflammatory neural and cardiac tissues, a mouse model of systemic inflammation was examined. [^18F]4-FDF PET/CT was performed on mice receiving vehicle (FIG. 5A) or bacterial cell wall LPS (FIG. 5B) 24 hr after injection. Sagittal, coronal, MIP, and axial sections of the brain, heart and muscle are shown. Time-activity curves (TAC) for brain (FIG. 5C), heart (FIG. 5D), and muscle (FIG. 5E) are shown for mice receiving vehicle (−LPS) or LPS (+LPS). Solid lines are the means and dotted lines are standard deviation. […] The plots show individual data points (circles), mean (long line) and s.d. (vertical line). * p<0.05 by ANOVA followed by Tukey's test.
Mice receiving saline vehicle (FIG. 5A) or intraperitoneal bacterial cell wall lipopolysaccharide (LPS), as previously described (FIG. 5B; Shrum, B. et al., 2014), were imaged by [^18F]4-FDF PET/CT 24 hr after injection. […] The low uptake of [^18F]4-FDF in healthy brain and heart contributed to an increased signal-to-noise ratio for the mapping of cardio- and neuroinflammation in tissues that are otherwise highly glycolytic and have high [^18F]FDG uptake in the absence of disease (FIG. 4C).
Eight-week-old male Balb/C mice received 5 mg/kg LPS through intraperitoneal injection 24-hr prior to planned PET/CT imaging. Mice were supported by being warmed, and by being given fluids subcutaneously 12 hr after LPS injection. The mice were monitored and scored for severity of response to LPS as described previously (Shrum, B. et al., 2014).
PET/CT Imaging. PET/CT imaging was carried out on a Bruker Si78PET/CT scanner with a 4-position hotel having adjustable isoflurane and respiratory monitoring for each position (Bruker USA). Tail veins were catheterized, and an anatomical CT was acquired over the whole of the mouse bodies using the “rat” settings. […] Tumor and tissue TACs were normalized to injected dose, measured by a CRC-15 PET dose calibrator (Capintec, Inc., NJ, USA), and expressed as percentage injected dose per cubic centimeter of tissue (% ID/cc).

[5] = Image-based dosimetry using OLINDA software; format: in vivo; conditions: all tissues, Balb/C mice, relative to [^18F]-2-fluoro-2-deoxyglucose
Procedure: Image-based dosimetry was evaluated in Balb/C mice (n=4) using OLINDA software. […] The bottom plot is a zoom of the y-axis from the top plot.

concussed mouse brain = test: PET/CT imaging of mice after closed-head concussive impact; format: in vivo, Balb/C mice
Procedure: Arrowhead indicates approximate location and direction of concussive blow. Mice were either left without head impact (Naïve), or received a single closed-head impact vertically at bregma 48 hrs prior to imaging. […] Average images from 20-40 min after the commencement of the scan are shown.

[6] = Wuest, M. et al., 2018; cited from earlier work
[7] = healthy brain and heart, PET/CT
[8] = HepG2 xenograft mice, intravenous injection, PET/CT
[9] = 5 mg/kg LPS i.p., imaged 24 hr after injection, vs vehicle

Compound: [^18F]-2-fluoro-2-deoxy-D-glucose [[^18F]FDG]
- area under the time activity curve (AUC) in brain, fold greater than [^18F]4-FDF ([1]; brain, normalized to AUC of [^18F]4-FDF): 6.01 fold
- uptake in brain and heart in the absence of disease [1, 7]: high
- area under the time activity curve (AUC) in heart, fold greater than [^18F]4-FDF ([1]; heart, normalized to AUC of [^18F]4-FDF): 5.29 fold

Compound: O=C(CF)[C@@H](O)[C@H](O)[C@H](O)CO [[U^13C]-1-FDF, [U^13C]-1-fluoro-1-deoxyfructose]
- metabolic fate / main ^13C-labelled cellular product ([2]; mass spectrometry): majority of the ^13C-labelled cellular product being [U^13C]-deoxyfluorolactate
- metabolism through the polyol pathway ([2]; mass spectrometry): limited metabolism through the polyol pathway
- metabolic trapping in the cell ([2]; mass spectrometry): neither [U^13C]-1- (FIG. 3E) nor [U^13C]-6-FDF are metabolically trapped

Compound: O=[13C]([13CH2]O)[13C@@H](O)[13C@H](O)[13C@H](O)[13CH2]O [[U^13C]-fructose]
- metabolic fate / main ^13C-labelled cellular product ([2]; mass spectrometry): metabolized as expected through both fructolytic and polyol pathways

- route of clearance [3]: main route of clearance is the kidney
Compound: O=C(CO)[C@@H](O)[C@@H]([18F])[C@H](O)CO [[^18F]-4-fluoro-4-deoxytagatose]
- bone uptake [3]: significant bone uptake that is retained overtime

- bone uptake ([1]; HepG2 xenograft mice, PET/CT): < 2 % ID/g
- excretion route [1, 8]: renal exceeding hepatobiliary excretion
- tumor accumulation / pattern of radiotracer retention [1, 8]: accumulate in the tumor
- accumulation in normal mouse tissues ([1]; PET/CT, compared with [^18F]FDG): lower than that observed with [^18F]FDG
- uptake in healthy brain and heart [4, 7]: low uptake
- retention in naïve brain (concussed mouse brain; naïve Balb/C mice, average images 20-40 min): limited retention
Compound: OC[C@H]1OC(O)(CO)[C@@H](O)[C@@H]1[18F] (stereo partly shown) [[^18F]4-FDF, [^18F]-4-fluoro-4-deoxyfructose]
- brain uptake following LPS treatment [4, 9]: significant increase
- cardiac uptake following LPS treatment [4, 9]: significant increase
- organ dose deposition [5]: less than or equal to the dose deposition for [^18F]-2-fluoro-2-deoxyglucose
- brain retention following concussion (concussed mouse brain; single closed-head impact at bregma 48 h prior to imaging, images 20-40 min): enhanced radiotracer retention

Compound: O=C(CO)[C@@H](O)[C@H](O)[C@H](O)CF [[U^13C]-6-FDF, [U^13C]-6-fluoro-6-deoxyfructose]
- metabolic fate / main ^13C-labelled cellular product ([2]; mass spectrometry): substantial amount of [U^13C]-deoxyfluorolactate production
- metabolism through the polyol pathway ([2]; mass spectrometry): capable of proceeding through the polyol pathway
- metabolic trapping in the cell ([2]; mass spectrometry): neither [U^13C]-1- (FIG. 3E) nor [U^13C]-6-FDF are metabolically trapped
- formation of glucose-6-phosphate [2]: did not form detectable amounts of glucose-6-phosphate

Compound: O=C(CF)[C@@H](O)[C@H](O)[C@H](O)CO [[^18F]1-FDF, 1-deoxy-1-fluoro-fructose]
- retention in cells in vitro and in vivo [6]: poorly retained in cells in vitro and in vivo

Compound: O=C(CO)[C@@H](O)[C@H](F)[C@H](O)CO [[U^13C]-4-FDF, [U^13C]-4-fluoro-4-deoxyfructose]
- metabolic fate / main ^13C-labelled cellular product ([2]; mass spectrometry): metabolism halted at [U^13C]-4-fluorodeoxy-1-phosphate
- metabolism through the polyol pathway ([2]; mass spectrometry): capable of proceeding through the polyol pathway
- accumulation of fluorodeoxyfructose-1,6-bisphosphate ([2]; mass spectrometry): accumulation of [U^13C]-4-fluorodeoxyfructose-1,6-bisphophate
- metabolic trapping in the cell ([2]; mass spectrometry): unique ability to be trapped within cells
- time course of metabolite generation ([2]; over 60 min of incubation): steady-state accumulation of [U^13C]-4-fluorodeoxyfructose-1-phosphate and [U^13C]-4-fluorodeoxyfructose-1,6-bisphosphate, and increase in [U^13C]-4-fluorodeoxysorbitol
- formation of glucose-6-phosphate [2]: did not form detectable amounts of glucose-6-phosphate

Compound: O=C(CO)[C@@H](O)[C@H](O)[C@H](O)C[18F] [[^18F]6-FDF, [^18F]-6-fluoro-6-deoxyfructose]
- bone uptake ([1]; HepG2 xenograft mice, PET/CT): > 7 % ID/g
- bone uptake over time ([1]; HepG2 xenograft mice, TAC): continued to increase overtime
- tumor accumulation / pattern of radiotracer retention [1, 8]: similarly observed
- bone uptake, fold higher than [^18F]4-FDF ([1]; HepG2 xenograft mice, normalized to [^18F]4-FDF): 3.69 fold
